According to patent publication US20090018134A1, “Compounds - 945” (AstraZeneca AB, priority 2007, published 2009):
Where two headings read alike, the source gives them in different places.

Target: T1, mTOR (Homo sapiens, UniProt P42345)
T1 construct: FLAG; made in house
Assay: In Vitro mTOR Kinase Assay (Echo), Test (a)(ii)
Assay type: biochemical
How it was run: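 Compounds were acoustically dispensed, then incubated with FLAG-tagged mTOR (1362-2549) for 2 hours at room temperature. Reactions were quenched with EDTA plus detection antibody and AlphaScreen beads and left overnight in the dark before reading. Loss of phospho-T389 signal gave IC50 values.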

[1] = table of enzyme assay Test (a)(ii), read-out: Test (a)(ii) IC50
[2] = read-out: mTOR Kinase Assay (Echo)

T1 sequence (P42345 1362-2549): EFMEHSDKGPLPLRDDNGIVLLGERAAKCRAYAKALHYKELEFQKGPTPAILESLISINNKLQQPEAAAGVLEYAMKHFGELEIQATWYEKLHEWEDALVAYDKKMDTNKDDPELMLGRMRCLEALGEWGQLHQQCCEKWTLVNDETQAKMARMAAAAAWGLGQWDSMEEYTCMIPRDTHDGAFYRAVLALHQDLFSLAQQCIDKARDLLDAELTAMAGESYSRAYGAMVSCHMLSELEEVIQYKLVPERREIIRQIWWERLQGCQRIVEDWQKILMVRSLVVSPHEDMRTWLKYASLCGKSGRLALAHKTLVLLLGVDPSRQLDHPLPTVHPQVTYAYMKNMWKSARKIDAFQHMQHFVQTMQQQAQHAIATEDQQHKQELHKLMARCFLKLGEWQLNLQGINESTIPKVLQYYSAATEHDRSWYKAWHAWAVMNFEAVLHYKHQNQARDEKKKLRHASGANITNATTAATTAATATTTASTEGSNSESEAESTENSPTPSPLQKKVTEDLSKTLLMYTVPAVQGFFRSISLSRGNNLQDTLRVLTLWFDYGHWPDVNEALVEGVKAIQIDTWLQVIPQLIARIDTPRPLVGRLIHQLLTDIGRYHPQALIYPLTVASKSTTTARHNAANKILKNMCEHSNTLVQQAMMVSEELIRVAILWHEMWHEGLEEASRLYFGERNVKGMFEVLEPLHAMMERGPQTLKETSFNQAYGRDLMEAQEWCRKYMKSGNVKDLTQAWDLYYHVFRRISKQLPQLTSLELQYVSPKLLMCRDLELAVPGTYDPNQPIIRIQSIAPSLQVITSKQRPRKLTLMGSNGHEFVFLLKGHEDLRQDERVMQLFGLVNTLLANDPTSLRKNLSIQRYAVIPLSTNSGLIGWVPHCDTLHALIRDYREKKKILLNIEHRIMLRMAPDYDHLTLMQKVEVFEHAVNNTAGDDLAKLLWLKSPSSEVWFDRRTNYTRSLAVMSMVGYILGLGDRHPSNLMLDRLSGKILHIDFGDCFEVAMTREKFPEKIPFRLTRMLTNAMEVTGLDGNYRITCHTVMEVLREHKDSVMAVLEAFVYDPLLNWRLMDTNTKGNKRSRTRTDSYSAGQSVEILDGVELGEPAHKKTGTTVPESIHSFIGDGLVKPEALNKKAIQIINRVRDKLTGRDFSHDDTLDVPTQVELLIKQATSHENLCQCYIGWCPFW

SMILES: C[C@H]1COCCN1c1cc(C2(S(=O)(=O)c3ccccc3)CC2)nc(-c2ccc(NC(=O)NCC(F)F)cc2)n1 [Example 36dx, 1-[4-[4-[1-(benzenesulfonyl)cyclopropyl]-6-[(3S)-3-methylmorpholin-4-yl]pyrimidin-2-yl]phenyl]-3-(2,2-difluoroethyl)urea]
- IC50 [1]: 2.62 nM

SMILES: Cn1cc(NC(=O)Nc2ccc(-c3nc(N4CCOCC4)cc(C4(S(C)(=O)=O)CC4)n3)cc2)cn1 [Example 12i, 3-(1-methylpyrazol-4-yl)-1-[4-[4-(1-methylsulfonylcyclopropyl)-6-morpholin-4-ylpyrimidin-2-yl]phenyl]urea]
- IC50 [2]: 0.771 nM

SMILES: C[C@H]1COCCN1c1cc(C2(S(=O)(=O)C3CCCCC3)CC2)nc(-c2ccc(NC(=O)NCCCO)cc2)n1 [Example 26g, 1-[4-[4-(1-cyclohexylsulfonylcyclopropyl)-6-[(3S)-3-methylmorpholin-4-yl]pyrimidin-2-yl]phenyl]-3-(3-hydroxypropyl)urea]
- IC50 [1]: 7.46 nM

SMILES: CNC(=O)Nc1ccc(-c2nc(N3CCOC[C@@H]3C)cc(C3(S(=O)(=O)c4ncc[nH]4)CC3)n2)cc1 [Example 40]
- IC50 [1]: 4.36 nM

SMILES: C[C@H]1COCCN1c1cc(C2(S(=O)(=O)CCCO)CC2)nc(-c2ccc(NC(=O)NC3CCC3)cc2)n1 [Example 31b, 3-cyclobutyl-1-[4-[4-[1-(3-hydroxypropylsulfonyl)cyclopropyl]-6-[(3S)-3-methylmorpholin-4-yl]pyrimidin-2-yl]phenyl]urea]
- IC50 [1]: 4.97 nM

SMILES: C[C@H]1COC[C@H](C)N1c1cc(C2(S(=O)(=O)C3CC3)CC2)nc(-c2ccc(NC(=O)Nc3cnn(C)c3)cc2)n1 [Example 92b, 1-[4-[4-(1-cyclopropylsulfonylcyclopropyl)-6-[(3S,5S)-3,5-dimethylmorpholin-4-yl]pyrimidin-2-yl]phenyl]-3-(1-methylpyrazol-4-yl)urea]
- IC50 [1]: 7.46 nM

SMILES: C[C@H]1COCCN1c1cc(C2(S(=O)(=O)c3ccncc3)CCC2)nc(-c2ccc(NC(=S)NCc3ncc[nH]3)cc2)n1 [Example 63, 3-(1H-Imidazol-2-ylmethyl)-1-[4-[4-[(3S)-3-methylmorpholin-4-yl]-6-(1-pyridin-4-ylsulfonylcyclobutyl)pyrimidin-2-yl]phenyl]thiourea]
- IC50 [1]: 72.5 nM

SMILES: C[C@H]1COCCN1c1cc(C2(S(C)(=O)=O)CC2)nc(-c2ccc(NC(=O)NCCF)cc2)n1 [Example 64aa, 3-(2-fluoroethyl)-1-[4-[4-[(3S)-3-methylmorpholin-4-yl]-6-(1-methylsulfonylcyclopropyl)pyrimi-din-2-yl]phenyl]urea]
- IC50 [1]: 3.88 nM

SMILES: C[C@H]1COCCN1c1cc(C2(S(C)(=O)=O)CC2)nc(-c2ccc(NC(=O)Nc3ccc(F)c(F)c3)cc2)n1 [Example 2q, 3-(3,4-difluorophenyl)-1-[4-[4-[(3S)-3-methylmorpholin-4-yl]-6-(1-methylsulfonylcyclopropyl)pyrimidin-2-yl]phenyl]urea]
- IC50 [2]: 1 nM
- IC50 [1]: 0.379 nM

SMILES: C[C@H]1COCCN1c1cc(C2(S(=O)(=O)c3ccncc3)CCC2)nc(-c2ccc(NC(=O)NCc3ncc[nH]3)cc2)n1 [Example 83d, 3-(1H-imidazol-2-ylmethyl)-1-[4-[4-[(3S)-3-methylmorpholin-4-yl]-6-(1-pyridin-4-ylsulfonylcyclobutyl)pyrimidin-2-yl]phenyl]urea]
- IC50 [1]: 47.2 nM

SMILES: C[C@H]1COCCN1c1cc(C2(S(=O)(=O)c3ccccn3)CC2)nc(-c2ccc(NC(=O)Nc3ccon3)cc2)n1 [Example 64ag, 1-[4-[4-[(3S)-3-methylmorpholin-4-yl]-6-(1-pyridin-2-ylsulfonylcyclopropyl)pyrimidin-2-yl]phenyl]-3-(1,2-oxazol-3-yl)urea]
- IC50 [1]: 2.81 nM

SMILES: C[C@H]1COCCN1c1cc(C2(S(=O)(=O)c3ccccc3)CC2)nc(-c2ccc(NC(=O)Nc3ncns3)cc2)n1 [Example 36bq, 1-[4-[4-[1-(benzenesulfonyl)cyclopropyl]-6-[(3S)-3-methylmorpholin-4-yl]pyrimidin-2-yl]phenyl]-3-(1,2,4-thiadiazol-5-yl)urea]
- IC50 [1]: 1.31 nM

SMILES: C[C@H]1COCCN1c1cc(C2(S(=O)(=O)c3ccncc3)CC2)nc(-c2ccc(NC(=O)NC3CCC3)cc2)n1 [Example 6, 3-Cyclobutyl-1-[4-[4-[(3S)-3-methylmorpholin-4-yl]-6-(1-pyridin-4-ylsulfonylcyclopropyl)pyrimidin-2-yl]phenyl]urea]
- IC50 [2]: 1 nM

SMILES: CC[C@H]1COCCN1c1cc(C2(S(=O)(=O)c3ccccc3)CC2)nc(-c2ccc(NC(=O)Nc3cnn(C)c3)cc2)n1 [Example 74e, 1-[4-[4-[1-(benzenesulfonyl)cyclopropyl]-6-[(3S)-3-ethylmorpholin-4-yl]pyrimidin-2-yl]phenyl]-3-(1-methylpyrazol-4-yl)urea]
- IC50 [1]: 5.06 nM

SMILES: C[C@H]1COCCN1c1cc(C2(S(=O)(=O)c3ccccn3)CC2)nc(-c2ccc(NC(=O)NC3CCC3)cc2)n1 [Example 28a, 3-cyclobutyl-1-[4-[4-[(3S)-3-methylmorpholin-4-yl]-6-(1-pyridin-2-ylsulfonylcyclopropyl)pyrimidin-2-yl]phenyl]urea]
- IC50 [1]: 2.53 nM

SMILES: C[C@H]1COCCN1c1cc(C2(S(=O)(=O)c3cc(F)cc(F)c3)CCN(Cc3ccccc3)CC2)nc(-c2ccc(NC(=O)NC3CC3)cc2)n1 [Example 22, 1-[4-[4-[1-Benzyl-4-(3,5-difluorophenyl)sulfonylpiperidin-4-yl]-6-[(3S)-3-methylmorpholin-4-yl]pyrimidin-2-yl]phenyl]-3-cyclopropylurea]
- IC50 [1]: 503 nM

SMILES: C[C@H]1COCCN1c1cc(C2(S(=O)(=O)c3ccc(F)c(F)c3)CC2)nc(-c2ccc(NC(=O)Nc3cnn(C)c3)cc2)n1 [Example 64k, 1-[4-[4-[1-(3,4-difluorophenyl)sulfonylcyclopro-pyl]-6-[(3S)-3-methylmorpholin-4-yl]pyrimidin-2-yl]phenyl]-3-(1-methylpyrazol-4-yl)urea]
- IC50 [1]: 1.44 nM

SMILES: CNC(=O)Nc1ccc(-c2nc(N3CCOCC3)cc(C3(S(=O)(=O)C4CC4)CC3)n2)cc1 [Example 13a, 1-[4-[4-(1-cyclopropylsulfonylcyclopropyl)-6-morpholin-4-ylpyrimidin-2-yl]phenyl]-3-methylurea]
- IC50 [1]: 3.41 nM

SMILES: CNC(=O)Nc1ccc(-c2nc(N3CCOC[C@@H]3C)cc(C3(S(C)(=O)=O)CCC3)n2)cc1 [Example 5, 3-Methyl-1-[4-[4-[(3S)-3-methylmorpholin-4-yl]-6-(1-methylsulfonylcyclobutyl)pyrimidin-2-yl]phenyl]urea]
- IC50 [2]: 0.802 nM

SMILES: C[C@H]1COCCN1c1cc(C2(S(C)(=O)=O)CC2)nc(-c2ccc(NC(=O)Nc3ccn(C)n3)cc2)n1 [Example 2ad, 1-[4-[4-[(3S)-3-methylmorpholin-4-yl]-6-(1-methylsulfonylcyclopropyl)pyrimidin-2-yl]phenyl]-3-(1-methylpyrazol-3-yl)urea]
- IC50 [2]: 0.705 nM

SMILES: C[C@H]1COCCN1c1cc(C2(S(=O)(=O)c3ccc(OC(F)F)cc3)CC2)nc(-c2ccc(NC(=O)NCC(F)F)cc2)n1 [Example 64f, 3-(2,2-difluoroethyl)-1-[4-[4-[1-[4-(difluoromethoxy)phenyl]sulfonyl-cyclopropyl]-6-[(3S)-3-methylmorpholin-4-yl]pyrimidin-2-yl]phenyl]urea]
- IC50 [1]: 5.21 nM

SMILES: Cc1cc(NC(=O)Nc2ccc(-c3nc(N4CCOC[C@@H]4C)cc(C4(S(C)(=O)=O)CC4)n3)cc2)no1 [Example 2u, 1-[4-[4-[(3S)-3-methylmorpholin-4-yl]-6-(1-methylsulfonylcyclopropyl)pyrimidin-2-yl]phenyl]-3-(5-methyl-1,2-oxazol-3-yl)urea]
- IC50 [2]: 1.18 nM

SMILES: Cc1csc(S(=O)(=O)C2(c3cc(N4CCOC[C@@H]4C)nc(-c4ccc(NC(=O)NCCO)cc4)n3)CCCC2)n1 [Example 36dl, 3-(2-hydroxyethyl)-1-[4-[4-[(3S)-3-methylmorpholin-4-yl]-6-[1-[(4-methyl-1,3-thiazol-2-yl)sulfonyl]cyclopentyl]pyrimidin-2-yl]phenyl]urea]
- IC50 [1]: 3.99 nM

SMILES: CCS(=O)(=O)C1(c2cc(N3CCOC[C@@H]3C)nc(-c3ccc(NC(=O)Nc4cnn(C)c4)cc3)n2)CC1 [Example 11m, 1-[4-[4-(1-ethylsulfonylcyclopropyl)-6-[(3S)-3-methylmorpholin-4-yl]pyrimidin-2-yl]phenyl]-3-(1-methylpyrazol-4-yl)urea]
- IC50 [2]: 4.37 nM

SMILES: O=C(NCCO)Nc1ccc(-c2nc(N3CCOCC3)cc(C3(S(=O)(=O)C4CC4)CC3)n2)cc1 [Example 13d, 1-[4-[4-(1-cyclopropylsulfonylcyclopropyl)-6-morpholin-4-ylpyrimidin-2-yl]phenyl]-3-(2-hydroxyethyl)urea]
- IC50 [1]: 3.51 nM

SMILES: C[C@H]1COCCN1c1cc(C2(S(=O)(=O)CCCO)CCOCC2)nc(-c2ccc(NC(=O)NCCC#N)cc2)n1 [Example 36ce, 3-(2-cyanoethyl)-1-[4-[4-[4-(3-hydroxypropylsulfonyl)oxan-4-yl]-6-[(3S)-3-methylmorpholin-4-yl]pyrimidin-2-yl]phenyl]urea]
- IC50 [1]: 420 nM

SMILES: CNC(=O)Nc1ccc(-c2nc(N3CCOC[C@@H]3C)cc(C3(S(C)(=O)=O)CCNCC3)n2)cc1 [Example 20a, 3-methyl-1-[4-[4-[(3S)-3-methylmorpholin-4-yl]-6-(4-methylsulfonylpiperidin-4-yl)pyrimidin-2-yl]phenyl]urea]
- IC50 [1]: 16.3 nM

SMILES: CCNC(=O)Nc1ccc(-c2nc(N3CCOC[C@@H]3C)cc(C3(S(=O)(=O)c4ccc(C(N)=O)cc4Cl)CC3)n2)cc1 [Example 85a, 3-chloro-4-[1-[2-[4-(ethylcarbamoylamino)phenyl]-6-[(3S)-3-methylmorpholin-4-yl]pyrimidin-4-yl]cyclopropyl]sulfonylbenzamide]
- IC50 [1]: 3.13 nM

SMILES: C[C@H]1COCCN1c1cc(C2(S(=O)(=O)c3nccs3)CCC2)nc(-c2ccc(NC(=O)NCCCO)cc2)n1 [Example 98j, 3-(3-hydroxypropyl)-1-[4-[4-[(3S)-3-methylmorpholin-4-yl]-6-[1-(1,3-thiazol-2-ylsulfonyl)cyclobutyl]pyrimidin-2-yl]phenyl]urea]
- IC50 [1]: 3.74 nM
